# Test results published in ChEMBL document CHEMBL1138473, “NMR and molecular dynamics study of the binding mode of naphthalene-N-sulfonyl-D-glutamic acid derivatives: novel MurD ligase inhibitors” (J Med Chem, 2009).
# Assay: Inhibition of Escherichia coli BL21-A1 MurD
row,IC50,Compound
1,239 µM,O=C(O)CC[C@@H](NS(=O)(=O)c1ccc2cc(OCc3ccccc3)ccc2c1)C(=O)O
2,630 µM,O=C(O)CC[C@@H](NS(=O)(=O)c1ccc2cc(OCC(=O)O)ccc2c1)C(=O)O
3,400 µM,O=C(O)CC[C@@H](NS(=O)(=O)c1ccc2cc(OC3CCCC3)ccc2c1)C(=O)O
4,280 µM,CCCCOc1ccc2cc(S(=O)(=O)N[C@H](CCC(=O)O)C(=O)O)ccc2c1
5,810 µM,O=C(O)CC[C@@H](NS(=O)(=O)c1ccc2ccccc2c1)C(=O)O
6,192 µM,CCOC(=O)COc1ccc2cc(S(=O)(=O)N[C@H](CCC(=O)O)C(=O)O)ccc2c1
7,710 µM,CCCCOc1ccc2cc(S(=O)(=O)N[C@@H](CCC(=O)O)C(=O)O)ccc2c1
8,132 µM,O=C(O)CC[C@@H](NS(=O)(=O)c1ccc2cc(OCCCc3ccccc3)ccc2c1)C(=O)O
9,180 µM,CCCCOc1ccc2ccc(S(=O)(=O)N[C@H](CCC(=O)O)C(=O)O)cc2c1
